Experimental data: patent US9745284B2, “2-pyridyloxy-4-ether orexin receptor antagonists” (MERCK SHARP & DOHME CORP., priority 2013, dated 2017)

Legend:
human orexin-2 receptor = human orexin-2 receptor (Homo sapiens (Human), UniProt O43614); assay: FLIPR Ca2+ flux assay, orexin-2 receptor; format: cell-based; details: CHO cells expressing human orexin-2 receptor; agonist 70 pM Ala-6,12 orexin-A; read-out: hOX2R FLIPR IC50
Description: The utility of the compounds in accordance with the present invention as orexin receptor OX1R and/or OX2R antagonists may be readily determined without undue experimentation by methodology well known in the art, including the “FLIPR Ca^2+ Flux Assay” (Okumura et al., Biochem. Biophys. Res. Comm. 280:976-981, 2001). In a typical experiment the OX1 and OX2 receptor antagonistic activity of the compounds of the present invention was determined in accordance with the following experimental method. For intracellular calcium measurements, Chinese hamster ovary (CHO) cells expressing the rat orexin-1 receptor or the human orexin-2 receptor, are grown in Iscove's modified DMEM containing 2 mM L-glutamine, […], 1% hypoxanthine-thymidine supplement, 100 U/ml penicillin, 100 μg/ml streptomycin and 10% heat-inactivated fetal calf serum (FCS). The cells are seeded at 20,000 cells/well into Becton-Dickinson black 384-well clear bottom sterile plates coated with poly-D-lysine. All reagents were from GIBCO-Invitrogen Corp. The seeded plates are incubated overnight at 37° C. and 5% CO2. Ala-6,12 human orexin-A as the agonist is prepared as a 1 mM stock solution in 1% bovine serum albumin (BSA) and diluted in assay buffer (HBSS containing 20 mM HEPES, 0.1% BSA and 2.5 mM probenecid, pH7.4) for use in the assay at a final concentration of 70 pM. Test compounds are prepared as 10 mM stock solution in DMSO, then diluted in 384-well plates, first in DMSO, then assay buffer. On the day of the assay, cells are washed 3 times with 100 μl assay buffer and then incubated for 60 min (37° C., 5% CO2) in 60 μl assay buffer containing 1 μM Fluo-4AM ester, 0.02% pluronic acid, and 1% BSA. The dye loading solution is then aspirated and cells are washed 3 times with 100 μl assay buffer. 30 μl of that same buffer is left in each well. Within the Fluorescent Imaging Plate Reader (FLIPR, Molecular Devices), test compounds are added to the plate in a volume of 25 μl, incubated for 5 min and finally 25 μl of agonist is added. Fluorescence is measured for each well at 1 second intervals for 5 minutes and the height of each fluorescence peak is compared to the height of the fluorescence peak induced by 70 pM Ala-6,12 orexin-A with buffer in place of antagonist. For each antagonist, IC50 value (the concentration of compound needed to inhibit 50% of the agonist response) is determined. Alternatively, compound potency can be assessed by a radioligand binding assay (described in Bergman et. al. Bioorg. Med. Chem. Lett. 2008, 18, 1425-1430) in which the inhibition constant (Ki) is determined in membranes prepared from CHO cells expressing either the OX1 or OX2 receptor. The intrinsic orexin receptor antagonist activity of a compound which may be used in the present invention may be determined by these assays.

hOX1R = hOX1R (Homo sapiens, UniProt O43613); assay: FLIPR Ca2+ flux assay, orexin-1 receptor; format: cell-based; details: CHO cells expressing orexin-1 receptor; agonist 70 pM Ala-6,12 orexin-A

Chain of human orexin-2 receptor (O43614 whole entry): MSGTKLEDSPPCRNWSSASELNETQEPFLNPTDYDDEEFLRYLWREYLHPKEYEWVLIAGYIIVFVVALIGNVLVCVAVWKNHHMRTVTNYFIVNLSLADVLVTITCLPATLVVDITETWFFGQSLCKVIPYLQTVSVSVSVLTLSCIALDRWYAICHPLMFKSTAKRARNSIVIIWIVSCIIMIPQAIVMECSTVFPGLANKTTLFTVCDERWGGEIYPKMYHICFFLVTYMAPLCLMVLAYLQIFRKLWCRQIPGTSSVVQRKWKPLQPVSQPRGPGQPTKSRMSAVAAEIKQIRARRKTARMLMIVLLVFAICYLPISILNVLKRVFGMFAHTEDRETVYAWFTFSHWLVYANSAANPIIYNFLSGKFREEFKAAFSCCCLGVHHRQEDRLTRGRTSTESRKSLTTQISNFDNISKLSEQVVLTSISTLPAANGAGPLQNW

Compound	IC50 (human orexin-2 receptor) [nM]	IC50 (hOX1R) [nM]
CCOc1ccnc(O[C@@H]2CC[C@@H](C)N(C(=O)c3ccccc3-n3nccn3)C2)c1 [Example 1, 4-Ethoxy-2-{[(3R,6R)-6-methyl-1-{[2-(2H-1,2,3-triazol-2-yl)phenyl]carbonyl}piperidin-3-yl]oxy}pyridine]	20.5	859
COc1ccnc(O[C@@H]2CC[C@@H](C)N(C(=O)c3ccccc3-n3nccn3)C2)c1 [Example 2, 4-methoxy-2-{[(3R,6R)-6-methyl-1-{[2-(2H-1,2,3-triazol-2-yl)phenyl]carbonyl}piperidin-3-yl]oxy}pyridine]	12.5	617
COc1ccnc(O[C@@H]2CC[C@@H](C)N(C(=O)c3ccccc3-n3nccn3)C2)c1Br [Example 3, 3-bromo-4-methoxy-2-{[(3R,6R)-6-methyl-1-{[2-(2H-1,2,3-triazol-2-yl)phenyl]carbonyl}piperidin-3-yl]oxy}pyridine]	14.7	843
C[C@@H]1CC[C@@H](Oc2cc(OCc3ccccc3)ccn2)CN1C(=O)c1ccccc1-n1nccn1 [Example 4, 4-(benzyloxy)-2-{[(3R,6R)-6-methyl-1-{[2-(2H-1,2,3-triazol-2-yl)phenyl]carbonyl}piperidin-3-yl]oxy}pyridine]	59.4	1850
CC(C)Oc1ccnc(O[C@@H]2CC[C@@H](C)N(C(=O)c3ccccc3-n3nccn3)C2)c1 [Example 5, 4-(1-Methylethoxy)-2-{[(3R,6R)-6-methyl-1-{[2-(2H-1,2,3-triazol-2-yl)phenyl]carbonyl}piperidin-3-yl]oxy}pyridine]	15.1	669
COc1ccnc(O[C@@H]2CC[C@@H](C)N(C(=O)c3ccccc3-n3ncnn3)C2)c1 [Example 6, 4-Methoxy-2-{[(3R,6R)-6-methyl-1-{[2-(2H-tetrazol-2-yl)phenyl]carbonyl}piperidin-3-yl]oxy}pyridine]	19	2180
CC(C)Oc1ccnc(O[C@@H]2CC[C@@H](C)N(C(=O)c3ccccc3-n3ncnn3)C2)c1 [Example 7, 4-(1-methylethoxy)-2-{[(3R,6R)-6-methyl-1-{[2-(2H-tetrazol-2-yl)phenyl]carbonyl}piperidin-3-yl]oxy}pyridine]	23	1200
CCOc1ccnc(O[C@@H]2CC[C@@H](C)N(C(=O)c3ccccc3-n3ncnn3)C2)c1 [Example 8, 4-ethoxy-2-{[(3R,6R)-6-methyl-1-{[2-(2H-tetrazol-2-yl)phenyl]carbonyl}piperidin-3-yl]oxy}pyridine]	35.4	2010
COc1ccnc(O[C@@H]2CC[C@@H](C)N(C(=O)c3cccc(F)c3-n3nccn3)C2)c1 [Example 10, 2-{[(3R,6R)-1-{[3-fluoro-2-(2H-1,2,3-triazol-2-yl)phenyl]carbonyl}-6-methylpiperidin-3-yl]oxy}-4-methoxypyridine]	14.7	576
COc1ccnc(O[C@@H]2CC[C@@H](C)N(C(=O)c3ccccc3C3CC3)C2)c1 [Example 12, 2-({(3R,6R)-1-[(2-cyclopropylphenyl)carbonyl]-6-methylpiperidin-3-yl}oxy)-4-methoxypyridine]	11	938
COc1ccnc(O[C@@H]2CC[C@@H](C)N(C(=O)c3ccccc3C(F)(F)F)C2)c1 [Example 13, 4-methoxy-2-{[(3R,6R)-6-methyl-1-{[2-(trifluoromethyl)phenyl]carbonyl}piperidin-3-yl]oxy}pyridine]	56.2	1760
CCOc1ccccc1C(=O)N1C[C@H](Oc2cc(OC)ccn2)CC[C@H]1C [Example 14, 2-({(3R,6R)-1-[(2-ethoxyphenyl)carbonyl]-6-methylpiperidin-3-yl}oxy)-4-methoxypyridine]	34.8	1980
COc1ccnc(O[C@@H]2CC[C@@H](C)N(C(=O)c3ccc(OC)nc3-c3ccccc3)C2)c1 [Example 15, 6-methoxy-3-({(2R,5R)-5-[(4-methoxypyridin-2-yl)oxy]-2-methylpiperidin-1-yl}carbonyl)-2-phenylpyridine]	24.5	746
COc1ccnc(O[C@@H]2CC[C@@H](C)N(C(=O)c3c(F)cccc3-n3nccn3)C2)c1 [Example 17, 2-{[(3R,6R)-1-{[2-fluoro-6-(2H-1,2,3-triazol-2-yl)phenyl]carbonyl}-6-methylpiperidin-3-yl]oxy}-4-methoxypyridine]	27	1600
COc1ccnc(O[C@@H]2CC[C@@H](C)N(C(=O)c3ccc(OC)nc3-n3nccn3)C2)c1 [Example 18]	94.5	10000
COc1ccnc(O[C@@H]2CC[C@@H](C)N(C(=O)c3ccc(F)cc3-n3nccn3)C2)c1 [Example 19, 2-{[(3R,6R)-1-{[4-fluoro-2-(2H-1,2,3-triazol-2-yl)phenyl]carbonyl}-6-methylpiperidin-3-yl]oxy}-4-methoxypyridine]	22.1	1800
COc1ccnc(O[C@@H]2CC[C@@H](C)N(C(=O)c3ccc(OC)cc3-n3nccn3)C2)c1 [Example 20, 4-methoxy-2-{[(3R,6R)-1-{[4-methoxy-2-(2H-1,2,3-triazol-2-yl)phenyl]carbonyl}-6-methylpiperidin-3-yl]oxy}pyridine]	114	10000
COc1ccnc(O[C@@H]2CC[C@@H](C)N(C(=O)c3ccc(OC)nc3C3CC3)C2)c1 [Example 21, 2-cyclopropyl-6-methoxy-3-({(2R,5R)-5-[(4-methoxypyridin-2-yl)oxy]-2-methylpiperidin-1-yl}carbonyl) pyridine]	38.3	8190
CC(C)Oc1ccnc(O[C@@H]2CC[C@@H](C)N(C(=O)c3ccc(F)cc3-n3nccn3)C2)c1 [Example 23, 2-{[(3R,6R)-1-{[4-fluoro-2-(2H-1,2,3-triazol-2-yl)phenyl]carbonyl}-6-methylpiperidin-3-yl]oxy}-4-(1-methylethoxy) pyridine]	41.2	2140
COc1ccc(C(=O)N2C[C@H](Oc3cc(OC(C)C)ccn3)CC[C@H]2C)c(-n2nccn2)c1 [Example 24, 2-{[(3R,6R)-1-{[4-methoxy-2-(2H-1,2,3-triazol-2-yl)phenyl]carbonyl}-6-methylpiperidin-3-yl]oxy}-4-(1-methylethoxy) pyridine]	136	10000
COc1ccc(C(=O)N2C[C@H](Oc3cc(OC(C)C)ccn3)CC[C@H]2C)c(-n2nccn2)n1 [Example 25, 6-methoxy-3-{[(2R,5R)-2-methyl-5-{[4-(1-methylethoxy)pyridin-2-yl]oxy}piperidin-1-yl]carbonyl}-2-(2H-1,2,3-triazol-2-yl)pyridine]	110	10000
CC(C)Oc1ccnc(O[C@@H]2CC[C@@H](C)N(C(=O)c3cc(F)ccc3-n3nccn3)C2)c1 [Example 26, 2-{[(3R,6R)-1-{[5-fluoro-2-(2H-1,2,3-triazol-2-yl)phenyl]carbonyl}-6-methylpiperidin-3-yl]oxy}-4-(1-methylethoxy) pyridine]	37.2	2480
C[C@@H]1CC[C@@H](Oc2cc(OCC(F)F)ccn2)CN1C(=O)c1ccccc1-n1nccn1 [Example 27, (2-(2H-1,2,3-triazol-2-yl)phenyl)((2R,5R)-5-((4-(2,2-difluoroethoxy)pyridin-2-yl)oxy)-2-methylpiperidin-1-yl)methanone]	12	1420
C[C@@H]1CC[C@@H](Oc2cc(OCC(F)(F)F)ccn2)CN1C(=O)c1ccccc1-n1nccn1 [Example 28, (2-(2H-1,2,3-triazol-2-yl)phenyl)((2R,5R)-2-methyl-5-((4-(2,2,2-trifluoroethoxy)pyridin-2-yl)oxy)piperidin-1-yl)methanone]	8	1340
COc1ccnc(O[C@@H]2CC[C@@H](C)N(C(=O)c3ccsc3-n3nccn3)C2)c1 [Example 59, 4-methoxy-2-{[(3R,6R)-6-methyl-1-{[2-(2H-1,2,3-triazol-2-yl)thiophen-3-yl]carbonyl}piperidin-3-yl]oxy}pyridine]	11	
